The structures appear in SMILES notation. Activity calls are given as the source filed them.

The target in test [1] is UDP-galactopyranose mutase (Mycobacterium tuberculosis, UniProt P9WIQ1). Nature of the test: Inhibitors of Mycobacterium tuberculosis UDP-galactopyranose mutase (UGM) enzyme Measured in Biochemical System Using Plate Reader - 2105-02_Inhibitor_Dose_CherryPick_Activity. [Related pubchem assays (depositor defined):AID504439].
Test [2] addresses T1, Oxysterols receptor LXR-beta (Homo sapiens, UniProt P55055).
T1 sequence (P55055 whole entry): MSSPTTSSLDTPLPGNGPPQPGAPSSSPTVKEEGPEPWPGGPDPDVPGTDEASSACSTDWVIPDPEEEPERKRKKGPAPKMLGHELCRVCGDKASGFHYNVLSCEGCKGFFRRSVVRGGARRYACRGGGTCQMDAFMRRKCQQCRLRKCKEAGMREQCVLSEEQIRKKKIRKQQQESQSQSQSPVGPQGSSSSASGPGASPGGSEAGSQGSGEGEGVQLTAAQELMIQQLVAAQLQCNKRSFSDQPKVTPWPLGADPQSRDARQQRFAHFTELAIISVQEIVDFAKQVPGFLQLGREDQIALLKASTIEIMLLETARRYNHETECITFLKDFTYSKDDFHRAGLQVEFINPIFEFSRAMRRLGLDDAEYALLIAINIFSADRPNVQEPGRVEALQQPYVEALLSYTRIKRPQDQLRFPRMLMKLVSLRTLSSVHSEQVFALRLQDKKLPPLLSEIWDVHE
Briefly: LXR agonists, Gal4 luciferase reporter, dose response, counter-screen for ssDAF-12 agonist project, cell-based, luminescence, HEK293, S. stercoralis campaign (AID 720737). In kind it is functional. Conditions: read-out: IC50 (the source's name). Background: A reporter such as luciferase makes a cellular process visible.

Test [3] addresses Troponin, cardiac muscle (Homo sapiens, UniProt P19429+P45379+P63316). Briefly: Fluorescence-based biochemical high throughput dose response assay for activators of the calcium sensitivity of cardiac Regulated Thin Filaments (RTF). [Related pubchem assays (depositor defined):AID493008, AID493018, AID504382, AID504383]. Type of test: protein-complex assay.
For test [4], the target named is Keap1/Nrf2 (Homo sapiens, UniProt Q14145). Nature of the test: disruptors of Keap1 binding to Nrf2 peptide – biochemical, fluorescence polarization, cherry-picked samples, dose response (AID 588683). For orientation: In fluorescence polarisation assays a small probe gives low polarisation when free and higher when bound to something large.
Keap1/Nrf2, sequence (Q16236 whole entry): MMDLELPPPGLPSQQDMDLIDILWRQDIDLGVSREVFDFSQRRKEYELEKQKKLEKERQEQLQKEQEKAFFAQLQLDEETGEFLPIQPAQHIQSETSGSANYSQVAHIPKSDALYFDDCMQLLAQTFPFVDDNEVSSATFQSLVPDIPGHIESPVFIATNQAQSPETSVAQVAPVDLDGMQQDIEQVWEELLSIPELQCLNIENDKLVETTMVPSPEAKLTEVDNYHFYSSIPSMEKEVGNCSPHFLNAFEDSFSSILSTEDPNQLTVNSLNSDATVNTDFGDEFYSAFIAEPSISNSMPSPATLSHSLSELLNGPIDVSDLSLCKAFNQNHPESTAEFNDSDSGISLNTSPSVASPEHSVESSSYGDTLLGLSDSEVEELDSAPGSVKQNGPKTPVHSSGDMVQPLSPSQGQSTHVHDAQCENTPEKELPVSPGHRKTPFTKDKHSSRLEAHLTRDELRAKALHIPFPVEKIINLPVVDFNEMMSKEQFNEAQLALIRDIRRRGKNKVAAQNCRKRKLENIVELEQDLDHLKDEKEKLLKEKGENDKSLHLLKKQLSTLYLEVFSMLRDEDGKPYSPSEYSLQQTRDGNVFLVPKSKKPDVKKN
Keap1/Nrf2, sequence (Q14145 whole entry): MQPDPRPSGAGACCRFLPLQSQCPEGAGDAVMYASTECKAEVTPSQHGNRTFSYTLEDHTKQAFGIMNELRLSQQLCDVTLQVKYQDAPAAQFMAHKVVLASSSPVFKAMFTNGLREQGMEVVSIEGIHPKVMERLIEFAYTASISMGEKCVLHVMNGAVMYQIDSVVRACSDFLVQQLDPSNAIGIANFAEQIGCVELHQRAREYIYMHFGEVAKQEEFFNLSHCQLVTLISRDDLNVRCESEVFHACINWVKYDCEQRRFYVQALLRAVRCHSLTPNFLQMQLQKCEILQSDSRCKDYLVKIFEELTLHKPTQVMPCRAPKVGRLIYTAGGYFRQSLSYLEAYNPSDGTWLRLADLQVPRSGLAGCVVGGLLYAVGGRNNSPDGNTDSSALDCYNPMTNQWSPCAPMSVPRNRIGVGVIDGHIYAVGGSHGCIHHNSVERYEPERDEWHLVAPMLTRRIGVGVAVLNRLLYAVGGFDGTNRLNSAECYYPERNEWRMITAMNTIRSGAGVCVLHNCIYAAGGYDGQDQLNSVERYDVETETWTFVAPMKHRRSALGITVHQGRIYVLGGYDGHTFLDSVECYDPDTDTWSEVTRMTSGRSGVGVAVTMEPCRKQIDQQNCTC
In test [5] the target is ORF 73 (Human herpesvirus 8, UniProt O40947). Nature of the test: KSHV LANA DNA-binding disruption – biochemical, fluorescence polarization, cherry-picked samples, dose response (AID 504725).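 Note: fluorescence polarization of a labeled DNA duplex reporting LANA DNA binding; potency is for inhibitors that block LANA binding to the DNA.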 Also on record: species or system Human gammaherpesvirus 8.
ORF 73, sequence (O40947 whole entry): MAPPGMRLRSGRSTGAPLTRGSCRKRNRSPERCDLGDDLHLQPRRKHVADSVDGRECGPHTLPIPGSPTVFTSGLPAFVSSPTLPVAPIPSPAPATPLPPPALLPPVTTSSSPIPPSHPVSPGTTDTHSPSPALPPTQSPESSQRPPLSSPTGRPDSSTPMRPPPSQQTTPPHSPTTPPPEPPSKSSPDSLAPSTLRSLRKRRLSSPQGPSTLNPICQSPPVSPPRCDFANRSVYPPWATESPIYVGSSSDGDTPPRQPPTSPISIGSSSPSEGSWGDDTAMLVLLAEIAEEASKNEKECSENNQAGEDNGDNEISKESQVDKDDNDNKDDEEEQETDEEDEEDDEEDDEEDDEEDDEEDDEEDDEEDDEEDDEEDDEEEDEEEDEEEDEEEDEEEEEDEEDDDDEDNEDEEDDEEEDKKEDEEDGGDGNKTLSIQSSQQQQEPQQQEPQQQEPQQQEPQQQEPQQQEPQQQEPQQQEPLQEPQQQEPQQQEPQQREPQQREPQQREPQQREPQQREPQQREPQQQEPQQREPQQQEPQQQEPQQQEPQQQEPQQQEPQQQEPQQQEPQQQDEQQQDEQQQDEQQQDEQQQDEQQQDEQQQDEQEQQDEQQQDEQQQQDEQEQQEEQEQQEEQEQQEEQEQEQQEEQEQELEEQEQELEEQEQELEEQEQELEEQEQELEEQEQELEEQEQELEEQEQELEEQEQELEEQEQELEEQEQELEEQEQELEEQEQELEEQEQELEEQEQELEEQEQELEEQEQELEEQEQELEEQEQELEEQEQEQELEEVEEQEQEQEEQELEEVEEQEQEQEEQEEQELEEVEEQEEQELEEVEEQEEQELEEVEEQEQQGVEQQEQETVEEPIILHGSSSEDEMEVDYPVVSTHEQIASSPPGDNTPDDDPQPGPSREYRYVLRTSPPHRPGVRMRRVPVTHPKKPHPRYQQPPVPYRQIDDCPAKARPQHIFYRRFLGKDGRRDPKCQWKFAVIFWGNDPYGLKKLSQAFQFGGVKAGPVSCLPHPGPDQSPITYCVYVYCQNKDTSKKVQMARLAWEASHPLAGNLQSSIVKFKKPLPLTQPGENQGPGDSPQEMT
The target of test [6] is T2, Endoribonuclease toxin MazF (Escherichia coli K-12, UniProt P0AE70). Nature of the test: substrate-only fluorescence increase artefacts – biochemical, single-stranded RNase substrate, counter-screen for MazEF activator project, dose response (AID 588502). Type of test: functional. (A counterscreen serves to expose hits that act by an unwanted route or on another target.)
T2 sequence (P0AE70 whole entry): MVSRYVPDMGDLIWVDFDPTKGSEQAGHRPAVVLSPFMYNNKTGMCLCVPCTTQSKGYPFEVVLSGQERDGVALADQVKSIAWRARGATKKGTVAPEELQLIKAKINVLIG

Test [7] is described as follows: Luminescence-based cell-based high throughput dose response assay to identify activators of the DAF-12 from the parasite S. stercoralis (ssDAF-12). Type of test: functional.
The target of test [8] is T2, Endoribonuclease toxin MazF. Nature of the test: activation of MazEF endoribonuclease cleavage – biochemical, fluorescence, single-stranded RNA substrate, uHTS hits, dose response (AID 588481). Type of test: functional.
The test system of test [9] is Jurkat. Briefly: SAR Analysis of small molecule inhibitors of […] specific antigen receptor-induced NF-kB activation in a Jurkat cell line using a luminescence assay - Set 3. [Related pubchem assays (depositor defined):AID435022, AID435025, AID465]. Type of test: functional, cell-based. Conditions: Homo sapiens.
Test [10] deals with HEK293. Nature of the test: HEK293T cell viability loss, resazurin readout – resazurin fluorescence, cytotoxicity control for NF-kB activator project, SAR follow-up (AID 493251). In kind it is functional, cell-based. Conditions: Homo sapiens.
In test [11] the test system is HEK293. Briefly: SAR Analysis of small molecule inhibitors of B-cell specific antigen receptor-induced NF-kB activation in a HEK-293T cell line using a luminescence assay - Set 2. [Related pubchem assays (depositor defined):AID435022, AID435025, AID489021]. In kind it is functional, cell-based. As to conditions: Homo sapiens.
In test [12] the target is Phospholipase D1 (Homo sapiens, UniProt Q13393). Briefly: cellular phospholipase D1 inhibition IC50 – cell-based, dose response (AID 602151).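 Note: cellular PLD1 assay in Calu-1 cells stimulated with PMA.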 Type of test: functional.
Phospholipase D1, sequence (Q13393 whole entry): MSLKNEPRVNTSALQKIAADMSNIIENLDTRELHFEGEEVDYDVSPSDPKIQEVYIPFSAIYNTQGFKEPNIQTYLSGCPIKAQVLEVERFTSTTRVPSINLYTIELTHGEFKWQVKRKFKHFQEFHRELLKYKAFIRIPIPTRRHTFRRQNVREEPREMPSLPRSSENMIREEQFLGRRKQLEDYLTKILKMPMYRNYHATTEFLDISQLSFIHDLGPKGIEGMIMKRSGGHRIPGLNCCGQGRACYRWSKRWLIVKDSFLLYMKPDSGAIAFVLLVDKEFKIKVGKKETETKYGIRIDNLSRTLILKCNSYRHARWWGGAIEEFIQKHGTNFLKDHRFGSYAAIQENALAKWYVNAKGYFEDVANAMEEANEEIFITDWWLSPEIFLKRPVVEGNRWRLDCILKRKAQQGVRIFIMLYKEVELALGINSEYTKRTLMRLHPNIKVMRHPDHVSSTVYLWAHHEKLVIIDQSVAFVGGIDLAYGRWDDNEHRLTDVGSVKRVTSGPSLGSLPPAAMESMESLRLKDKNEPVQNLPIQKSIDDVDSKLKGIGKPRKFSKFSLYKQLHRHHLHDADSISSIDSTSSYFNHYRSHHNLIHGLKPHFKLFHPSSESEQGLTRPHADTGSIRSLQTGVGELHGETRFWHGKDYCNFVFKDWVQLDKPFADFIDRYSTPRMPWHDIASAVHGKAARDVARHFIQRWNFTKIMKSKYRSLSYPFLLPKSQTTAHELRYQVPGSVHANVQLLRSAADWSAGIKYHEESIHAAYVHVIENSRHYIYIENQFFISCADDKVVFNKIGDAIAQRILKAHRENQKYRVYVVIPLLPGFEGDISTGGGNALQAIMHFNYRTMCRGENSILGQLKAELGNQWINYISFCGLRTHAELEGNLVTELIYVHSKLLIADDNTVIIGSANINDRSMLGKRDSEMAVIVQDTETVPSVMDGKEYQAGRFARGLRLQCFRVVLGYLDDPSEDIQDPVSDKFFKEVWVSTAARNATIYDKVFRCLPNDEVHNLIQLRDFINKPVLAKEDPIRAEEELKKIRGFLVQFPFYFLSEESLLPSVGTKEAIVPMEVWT
Test [13] concerns the target T3, Sentrin-specific protease 8 (Homo sapiens, UniProt Q96LD8).
T3 sequence (Q96LD8 whole entry): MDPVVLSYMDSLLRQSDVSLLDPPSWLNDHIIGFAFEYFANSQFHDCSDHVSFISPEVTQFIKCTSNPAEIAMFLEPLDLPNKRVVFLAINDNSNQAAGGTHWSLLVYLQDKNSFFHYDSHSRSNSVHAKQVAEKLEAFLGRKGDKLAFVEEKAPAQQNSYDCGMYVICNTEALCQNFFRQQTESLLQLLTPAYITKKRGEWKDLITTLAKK
Nature of the test: inhibition of human SENP8 cleavage activity – biochemical, luminescence, SAR follow-up (AID 504501). In kind it is functional.

Test [14] deals with T4, Sentrin-specific protease 6 (Homo sapiens, UniProt Q9GZR1).
T4 sequence (Q9GZR1 whole entry): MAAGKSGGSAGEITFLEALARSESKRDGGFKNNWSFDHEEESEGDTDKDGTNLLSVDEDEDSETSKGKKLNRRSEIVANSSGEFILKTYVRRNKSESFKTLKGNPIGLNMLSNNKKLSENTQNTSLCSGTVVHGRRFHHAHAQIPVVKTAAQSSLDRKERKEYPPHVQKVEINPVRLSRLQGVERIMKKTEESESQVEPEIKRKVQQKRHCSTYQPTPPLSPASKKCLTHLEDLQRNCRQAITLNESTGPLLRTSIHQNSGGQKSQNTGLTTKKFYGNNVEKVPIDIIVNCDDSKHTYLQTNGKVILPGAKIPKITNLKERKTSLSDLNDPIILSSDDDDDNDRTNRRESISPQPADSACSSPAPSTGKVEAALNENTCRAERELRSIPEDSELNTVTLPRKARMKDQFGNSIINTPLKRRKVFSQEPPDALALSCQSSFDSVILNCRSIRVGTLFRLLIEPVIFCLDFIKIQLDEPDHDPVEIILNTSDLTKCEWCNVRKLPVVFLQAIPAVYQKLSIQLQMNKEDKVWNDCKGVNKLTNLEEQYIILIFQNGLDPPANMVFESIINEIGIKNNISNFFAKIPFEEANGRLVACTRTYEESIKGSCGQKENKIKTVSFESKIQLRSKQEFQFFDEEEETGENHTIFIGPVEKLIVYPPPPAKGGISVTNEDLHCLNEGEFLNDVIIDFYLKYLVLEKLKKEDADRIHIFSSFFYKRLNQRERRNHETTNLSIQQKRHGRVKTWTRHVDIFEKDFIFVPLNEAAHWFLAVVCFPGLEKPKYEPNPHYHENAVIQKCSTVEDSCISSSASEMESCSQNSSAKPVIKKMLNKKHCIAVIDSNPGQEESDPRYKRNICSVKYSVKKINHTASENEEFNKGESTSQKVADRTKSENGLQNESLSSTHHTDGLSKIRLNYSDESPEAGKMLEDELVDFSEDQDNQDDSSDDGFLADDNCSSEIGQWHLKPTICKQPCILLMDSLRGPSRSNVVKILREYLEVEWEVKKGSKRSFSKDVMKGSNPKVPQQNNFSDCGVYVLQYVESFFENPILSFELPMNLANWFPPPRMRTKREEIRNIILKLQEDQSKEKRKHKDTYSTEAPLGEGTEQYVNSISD
Briefly: SAR Analysis of small molecule inhibitors of Sentrin-specific protease 6 (SENP6) using a Luminescent assay. [Related pubchem assays (depositor defined):AID2582, AID2599]. In kind it is functional.

Test [15] has as its target T3, Sentrin-specific protease 8. Briefly: inhibition of sentrin protease 8 – biochemical, luminescence, set 2, SAR follow-up (AID 588601). Type of test: functional.
Test [16] deals with T5, Sentrin-specific protease 7 (Homo sapiens, UniProt Q9BQF6).
T5 sequence (Q9BQF6 whole entry): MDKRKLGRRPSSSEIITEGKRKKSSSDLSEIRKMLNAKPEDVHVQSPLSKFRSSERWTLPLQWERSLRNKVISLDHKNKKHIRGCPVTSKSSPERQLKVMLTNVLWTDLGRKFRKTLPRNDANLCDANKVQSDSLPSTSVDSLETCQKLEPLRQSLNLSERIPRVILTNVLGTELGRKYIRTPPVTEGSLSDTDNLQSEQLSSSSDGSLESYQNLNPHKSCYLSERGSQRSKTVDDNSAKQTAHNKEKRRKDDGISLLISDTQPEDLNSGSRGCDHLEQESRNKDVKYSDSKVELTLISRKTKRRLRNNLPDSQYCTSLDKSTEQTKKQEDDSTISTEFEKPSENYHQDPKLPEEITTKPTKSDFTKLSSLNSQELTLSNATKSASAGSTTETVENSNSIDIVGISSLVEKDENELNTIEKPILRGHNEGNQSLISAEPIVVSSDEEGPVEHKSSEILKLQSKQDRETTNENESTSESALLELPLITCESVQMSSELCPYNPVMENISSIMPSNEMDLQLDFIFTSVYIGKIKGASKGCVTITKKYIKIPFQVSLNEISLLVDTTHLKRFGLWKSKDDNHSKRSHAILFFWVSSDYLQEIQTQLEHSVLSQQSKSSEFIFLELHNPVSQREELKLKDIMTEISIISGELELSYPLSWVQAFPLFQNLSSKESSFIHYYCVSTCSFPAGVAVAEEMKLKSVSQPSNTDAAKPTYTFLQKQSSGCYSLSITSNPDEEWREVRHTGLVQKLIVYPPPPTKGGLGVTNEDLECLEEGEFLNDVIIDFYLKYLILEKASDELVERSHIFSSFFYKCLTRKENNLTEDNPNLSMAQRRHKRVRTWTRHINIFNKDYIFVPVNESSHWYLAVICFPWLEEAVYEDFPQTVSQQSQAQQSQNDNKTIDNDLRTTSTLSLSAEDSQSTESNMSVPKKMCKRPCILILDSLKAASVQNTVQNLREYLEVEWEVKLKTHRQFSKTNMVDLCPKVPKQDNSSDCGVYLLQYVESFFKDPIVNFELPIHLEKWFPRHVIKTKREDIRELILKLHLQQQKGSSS
Briefly: inhibition of human SENP7 cleavage activity – biochemical, luminescence, SAR follow-up (AID 504497). Type of test: functional.

In test [17] the target is T5, Sentrin-specific protease 7. Nature of the test: inhibition of human SENP7 cleavage activity – biochemical, luminescence, set 2, SAR follow-up (AID 588600). Type of test: functional.
For test [18], the target named is T6, Caspase-3 (Homo sapiens, UniProt P42574).
T6 sequence (P42574 whole entry): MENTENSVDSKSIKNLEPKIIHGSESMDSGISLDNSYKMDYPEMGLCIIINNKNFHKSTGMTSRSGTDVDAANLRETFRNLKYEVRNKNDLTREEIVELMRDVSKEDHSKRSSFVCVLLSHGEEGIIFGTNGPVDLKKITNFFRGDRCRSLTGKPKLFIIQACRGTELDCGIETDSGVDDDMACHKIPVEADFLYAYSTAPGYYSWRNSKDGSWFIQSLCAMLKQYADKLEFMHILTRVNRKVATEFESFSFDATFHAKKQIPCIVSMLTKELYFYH
Briefly: inhibition of recombinant caspase-3 activity – biochemical, luminescence, set 2, selectivity assay for SENP protease inhibitor project, SAR follow-up (AID 588599). In kind it is functional.

Test [19] has as its target T4, Sentrin-specific protease 6. Nature of the test: inhibition of human SENP6 catalytic domain – biochemical, luminescence, set 2, SAR follow-up (AID 588598). Type of test: functional.
Test [20] concerns the target T6, Caspase-3. Nature of the test: SAR Analysis of small molecule inhibitors of Sentrin-specific proteases (SENPs) using a Caspase-3 Selectivity assay. [Related pubchem assays (depositor defined):AID2540, AID2599, AID434973, AID489001]. In kind it is functional.

UDP-galactopyranose mutase, sequence (P9WIQ1 whole entry): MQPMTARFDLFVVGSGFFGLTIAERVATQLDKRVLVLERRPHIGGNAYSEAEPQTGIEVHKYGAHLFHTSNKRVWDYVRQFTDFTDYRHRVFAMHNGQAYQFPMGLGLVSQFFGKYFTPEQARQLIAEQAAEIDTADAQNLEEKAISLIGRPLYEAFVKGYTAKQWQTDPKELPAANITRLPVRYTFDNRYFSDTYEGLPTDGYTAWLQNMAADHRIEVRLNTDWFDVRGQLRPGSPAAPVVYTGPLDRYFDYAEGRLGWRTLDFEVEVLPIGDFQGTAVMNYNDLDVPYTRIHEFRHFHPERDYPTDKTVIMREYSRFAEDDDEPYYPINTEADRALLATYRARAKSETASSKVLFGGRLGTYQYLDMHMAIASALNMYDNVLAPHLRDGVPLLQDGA

As for `CN(N=Nc1ccc([N+](=O)[O-])cc1)c1ccccc1`, the values for the AC50 in test [1], in [4] and in [5] were 28.7 µM (active), 21.8 µM (active) and 11.4 µM (active), respectively. Further, the EC50 in [2] is > 67.6 µM (inactive); in [3], 5.61 µM (active); in test [6] it was 31 µM (inactive); in test [8], > 99 µM (inactive). The IC50 (in general, the concentration needed to halve the response being measured) in test [7] was > 67.6 µM (inactive).

On to `CC(C)NC(=O)CCc1nc(-c2ccc(C(C)(C)C)cc2)no1`, for which the values for the IC50 in test [9], in test [10] and in test [11] were 29.2 µM (inactive), > 80 µM (inactive) and 13.5 µM (active), respectively.

In the case of `O=C(NCCN1CC=C(n2c(=O)[nH]c3ccccc32)CC1)C1CC1c1ccccc1` (stereo not given), the half-inhibitory concentration (IC50) in [12] is 0.2 µM (active).

Turning to `Fc1cccc(F)c1-c1nc(/C=C/c2ccccc2)no1`, the IC50 in test [13] was 15 µM (active); in test [14], 14 µM (active); in test [15], 6.98 µM (active); in [16] it was 5.5 µM (active); in test [17], 8.02 µM (active); in test [18], 18 µM (active). In addition, the IC50 is 6.72 µM (active) in test [19] and 20 µM (active) in test [20].

For the origin of these results see ChEMBL document CHEMBL1201862, “PubChem BioAssay data set” (2004).
